{"source": "patent US8153103B2", "about": "“Conjugates of photo-activatable dyes” (Board of Regents, The University of Texas System, priority 2008, dated 2012)", "system": "gap junction channels", "assay": "Cell-cell dye transfer after local uncaging in C. elegans embryos (control experiments)", "assay_type": "in vivo", "details": "α-GA 25 μM, 4-cell embryo, eggshell thinned with bleach and chitinase, ABp uncaged", "source_text": "To study the pattern of cell-cell coupling during early development, embryos were collected from injected worms and subjected to differential interference contrast (“DIC”) imaging. Three to four hours after injection, early embryos were collected from injected worms by cutting the worms near the uterus. Labeled embryos were transferred onto a 2% agar pad, covered with a coverslip, and mounted on an inverted fluorescence microscope (Axiovert 200M, Carl Zeiss, Peabody, Mass.). During uncaging and imaging, motorized filter wheels (Ludl Electronics Products, Hawthorne, N.Y.) were employed to select excitation and emission wavelengths by passing light from a Xeon lamp (75 W) through bandpass filters (Chroma Technology, Rockingham, Vt.). A neutral density filter was also added to the light path to reduce the excitation light intensity by about 70%. The typical UV uncaging duration is about 2 seconds. Bandpass filters were chosen for UV uncaging (360±20 nm), coumarin imaging (excitation 425±5 nm, emission 460±15 nm), GFP imaging (excitation 488±7.5 nm, emission 530±20 nm), and rhodamine imaging (excitation 560±20 nm, emission 615±30 nm). A customized multiple path dichroic mirror was used for the UV uncaging and 3-color imaging. Epifluorescence was collected with a cooled CCD camera (ORCA-ER, Hamamatsu, Bridgewater, N.J.) under the control of OpenLab software (Improvision, Waltham, Mass.). […]"}
{"compound": "CC1(C)[C@@H](O)CC[C@]2(C)[C@H]3C(=O)C=C4[C@H]5C[C@@](C)(C(=O)O)CC[C@]5(C)CC[C@@]4(C)[C@]3(C)CC[C@@H]12", "note": "[α-GA, 18α-glycyrrhetinic acid]", "values": [{"measurement": "cell-cell dye transfer after uncaging dextran-CANPE-HCC in presence of blocker", "result": "dye transfer was not observed"}]}
